From ChEMBL document CHEMBL1153852, “Steroidal lactones as inhibitors of 17beta-hydroxysteroid dehydrogenase type 5: chemical synthesis, enzyme inhibitory activity, and assessment of estrogenic and androgenic activities” (Eur J Med Chem, 2009)
Activity calls are given as the source filed them. The calls are words filed in the database; no cut-off is given here.

What was measured:
[1] = molecular target: T1, Estrogen receptor (Rattus norvegicus) (UniProt P06211); assay: Binding affinity to rat uterus estrogen receptor at 1 uM
T1 sequence (whole entry): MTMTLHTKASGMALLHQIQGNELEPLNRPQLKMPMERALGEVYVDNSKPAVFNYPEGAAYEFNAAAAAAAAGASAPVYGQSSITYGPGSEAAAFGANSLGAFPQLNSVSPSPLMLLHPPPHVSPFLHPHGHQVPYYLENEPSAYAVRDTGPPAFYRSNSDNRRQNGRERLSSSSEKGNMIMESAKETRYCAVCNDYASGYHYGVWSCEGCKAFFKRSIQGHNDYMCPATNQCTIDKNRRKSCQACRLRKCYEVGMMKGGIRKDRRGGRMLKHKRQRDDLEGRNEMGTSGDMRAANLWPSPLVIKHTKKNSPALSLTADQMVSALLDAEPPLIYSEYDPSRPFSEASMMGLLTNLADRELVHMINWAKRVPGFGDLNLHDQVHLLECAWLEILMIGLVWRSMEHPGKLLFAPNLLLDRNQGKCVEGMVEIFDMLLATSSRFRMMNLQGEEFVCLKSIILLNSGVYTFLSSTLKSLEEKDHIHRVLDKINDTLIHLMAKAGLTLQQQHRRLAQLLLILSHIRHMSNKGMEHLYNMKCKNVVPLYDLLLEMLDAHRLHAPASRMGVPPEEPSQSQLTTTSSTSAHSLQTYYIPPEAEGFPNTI

[2] = molecular target: T2, Progesterone receptor (Rattus norvegicus) (UniProt Q63449); assay: Binding affinity to rat uterus progesterone receptor at 0.1 uM
T2 sequence (whole entry): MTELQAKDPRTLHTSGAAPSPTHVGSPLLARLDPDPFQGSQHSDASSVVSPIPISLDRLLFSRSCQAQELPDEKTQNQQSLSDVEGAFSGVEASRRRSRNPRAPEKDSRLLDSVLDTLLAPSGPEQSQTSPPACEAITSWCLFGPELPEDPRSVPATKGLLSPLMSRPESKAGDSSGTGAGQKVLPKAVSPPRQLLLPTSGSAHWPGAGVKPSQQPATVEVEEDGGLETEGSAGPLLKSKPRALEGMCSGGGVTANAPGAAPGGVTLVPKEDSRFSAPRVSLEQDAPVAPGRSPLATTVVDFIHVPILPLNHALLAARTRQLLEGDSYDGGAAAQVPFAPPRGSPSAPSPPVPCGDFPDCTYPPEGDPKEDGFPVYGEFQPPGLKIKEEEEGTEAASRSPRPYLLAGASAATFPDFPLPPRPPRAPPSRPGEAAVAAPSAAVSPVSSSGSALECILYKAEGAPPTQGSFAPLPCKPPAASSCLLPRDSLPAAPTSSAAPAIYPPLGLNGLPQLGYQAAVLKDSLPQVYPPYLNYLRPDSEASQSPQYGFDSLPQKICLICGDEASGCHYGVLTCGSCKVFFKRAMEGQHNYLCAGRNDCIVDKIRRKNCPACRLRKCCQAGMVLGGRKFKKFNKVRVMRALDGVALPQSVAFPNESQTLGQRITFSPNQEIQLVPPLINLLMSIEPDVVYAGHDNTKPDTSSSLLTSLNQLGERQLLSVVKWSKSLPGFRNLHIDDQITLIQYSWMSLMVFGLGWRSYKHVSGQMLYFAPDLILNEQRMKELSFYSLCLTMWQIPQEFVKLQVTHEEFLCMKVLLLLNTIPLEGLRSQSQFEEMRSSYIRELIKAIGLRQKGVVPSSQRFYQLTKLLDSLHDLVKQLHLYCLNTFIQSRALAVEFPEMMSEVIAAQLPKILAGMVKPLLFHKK

[3] = molecular target: T1, Estrogen receptor (Rattus norvegicus); assay: Binding affinity to rat uterus estrogen receptor at 0.1 uM
[4] = molecular target: T3, 17-beta-hydroxysteroid dehydrogenase type 2 (Homo sapiens) (UniProt P37059); assay: Inhibition of human 17beta-HSD2 expressed in HEK293 cells assessed as enzyme-mediated transformation of [14C]-testosterone in to [14C]-4-androstene-3,17-dione at 1 uM; format: cell-based
T3 sequence (whole entry): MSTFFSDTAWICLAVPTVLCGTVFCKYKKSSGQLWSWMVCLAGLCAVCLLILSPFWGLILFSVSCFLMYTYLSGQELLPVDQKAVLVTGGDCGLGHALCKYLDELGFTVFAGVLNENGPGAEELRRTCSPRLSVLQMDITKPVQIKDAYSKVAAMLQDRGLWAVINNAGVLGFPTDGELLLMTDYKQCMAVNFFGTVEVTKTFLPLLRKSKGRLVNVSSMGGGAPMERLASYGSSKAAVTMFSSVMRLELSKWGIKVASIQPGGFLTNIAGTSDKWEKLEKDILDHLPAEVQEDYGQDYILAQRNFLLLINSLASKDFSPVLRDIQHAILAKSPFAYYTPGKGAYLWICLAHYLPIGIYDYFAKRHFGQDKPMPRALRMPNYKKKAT

[5] = molecular target: T4, Androgen receptor (Rattus norvegicus) (UniProt P15207); assay: Binding affinity to rat ventral prostate androgen receptor at 0.1 uM; format: tissue-based; settings: Prostate gland
T4 sequence (whole entry): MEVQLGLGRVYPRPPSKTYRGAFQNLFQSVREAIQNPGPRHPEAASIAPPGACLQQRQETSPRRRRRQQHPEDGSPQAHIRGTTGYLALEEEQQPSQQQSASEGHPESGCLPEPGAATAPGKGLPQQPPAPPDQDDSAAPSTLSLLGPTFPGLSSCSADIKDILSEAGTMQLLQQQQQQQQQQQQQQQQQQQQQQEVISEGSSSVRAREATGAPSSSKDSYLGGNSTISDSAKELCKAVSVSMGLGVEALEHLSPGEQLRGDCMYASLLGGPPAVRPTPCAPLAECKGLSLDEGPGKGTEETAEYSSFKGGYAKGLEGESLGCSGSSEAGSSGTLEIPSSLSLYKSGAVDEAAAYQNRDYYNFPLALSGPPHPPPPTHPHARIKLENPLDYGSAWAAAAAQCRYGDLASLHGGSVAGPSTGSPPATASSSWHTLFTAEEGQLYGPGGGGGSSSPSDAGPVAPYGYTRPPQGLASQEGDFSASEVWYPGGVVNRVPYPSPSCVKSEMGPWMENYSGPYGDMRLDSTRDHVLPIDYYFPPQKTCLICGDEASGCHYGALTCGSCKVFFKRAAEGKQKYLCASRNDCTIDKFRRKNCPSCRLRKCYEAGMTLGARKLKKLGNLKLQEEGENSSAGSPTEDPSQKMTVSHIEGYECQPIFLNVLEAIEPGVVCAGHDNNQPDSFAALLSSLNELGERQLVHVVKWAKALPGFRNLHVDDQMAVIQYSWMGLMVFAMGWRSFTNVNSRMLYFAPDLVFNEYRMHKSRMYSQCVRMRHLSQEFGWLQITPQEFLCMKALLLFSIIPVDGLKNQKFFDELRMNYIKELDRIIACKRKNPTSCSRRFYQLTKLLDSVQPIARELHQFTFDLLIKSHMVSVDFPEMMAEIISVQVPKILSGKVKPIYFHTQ

[6] = molecular target: T4, Androgen receptor (Rattus norvegicus); assay: Binding affinity to rat ventral prostate androgen receptor at 10 uM; format: tissue-based; settings: Prostate gland

| Activity [2] | Activity [3] | Activity [4] | Activity [5] | Activity [6] | SMILES | Activity [1] |
| --- | --- | --- | --- | --- | --- | --- |
| – | – | – | – | – | CC1(C)CC[C@@]2(CC[C@H]3[C@@H]4CCc5ccccc5[C@H]4CC[C@@]32C)OC1=O | 0% |
| 11% | 10% | inactive | 0% | 6% | CC1(C)CC[C@@]2(CC[C@H]3[C@@H]4CCc5cc(O)ccc5[C@H]4CC[C@@]32C)OC1=O | – |
